Molecular target: T1, glucocerebrosidase (Gcase) (Homo sapiens, UniProt P04062)
T1 construct: micellar solution containing 10 nM GCase and 100 nM saposin C
T1 sequence (P04062 40-536): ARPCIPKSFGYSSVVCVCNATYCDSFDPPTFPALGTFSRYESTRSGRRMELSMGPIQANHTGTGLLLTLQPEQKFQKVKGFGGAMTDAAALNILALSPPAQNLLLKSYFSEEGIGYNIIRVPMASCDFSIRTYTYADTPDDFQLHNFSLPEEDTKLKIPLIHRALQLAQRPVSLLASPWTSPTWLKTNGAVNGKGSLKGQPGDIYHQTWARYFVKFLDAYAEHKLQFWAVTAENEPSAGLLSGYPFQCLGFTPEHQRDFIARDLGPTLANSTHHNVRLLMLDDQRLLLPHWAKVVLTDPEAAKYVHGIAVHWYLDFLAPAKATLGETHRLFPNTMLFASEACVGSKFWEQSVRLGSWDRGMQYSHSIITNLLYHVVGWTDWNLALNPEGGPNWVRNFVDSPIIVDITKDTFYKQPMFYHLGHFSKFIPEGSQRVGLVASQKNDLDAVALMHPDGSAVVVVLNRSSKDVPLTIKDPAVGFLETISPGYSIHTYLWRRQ
Experiment: Glucocerebrosidase (Gcase) activation assay with 4-methylumbelliferyl-beta-D-glucopyranoside substrate, saposin C and phosphatidylserine/triton micelles, fluorescence readout
Assay type: biochemical
Conditions: for Percent Gcase Activation, 0.1 μM Test Compound: test compound at 0.1 μM; for Percent Gcase Activation, 1 μM Test Compound: test compound at 1.0 μM
Outline: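 Fluorescence (ex 365 nm, em 440 nm) read after glycine pH 12.5 stop of a 15 min room-temperature reaction. GCase 10 nM plus saposin C 100 nM in PS/triton micelles, pH 4.7, preincubated 30 min with compound; substrate solution held 2 mM 4-MU-beta-glucoside. Screened at 1.0 and 0.1 μM; 8-point, 3-fold curves from 5 μM top.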

| SMILES | Percent Gcase Activation, 0.1 μM Test Compound | Percent Gcase Activation, 1 μM Test Compound |
| --- | --- | --- |
| Cc1cc(-c2cccc(C#N)n2)nc2c(C(=O)NC(C3CC3)C(F)(F)F)cnn12 (centres unmarked) [III-133] | ** (Gcase activation in the range of 10% up to 20%) | +++ (Gcase activation greater than 60%) |
| Cc1cc(-c2cccc(F)n2)nc2c(C(=O)N[C@@H](C)C3CC3)cnn12 [III-134] | ** (Gcase activation in the range of 10% up to 20%) | +++ (Gcase activation greater than 60%) |
| Cc1cc(-c2cccc(F)n2)nc2c(C(=O)N[C@H](C)C3CC3)cnn12 [III-135] | ** (Gcase activation in the range of 10% up to 20%) | +++ (Gcase activation greater than 60%) |
| Cc1cc(-c2ccccc2)nc2c(C(=O)N[C@@H](C)C3CC3)cnn12 [III-136] | *** (greater than 20% Gcase activation) | +++ (Gcase activation greater than 60%) |
| COc1cc(F)cc(-c2cc(C)n3ncc(C(=O)N[C@@H](C)C4CC4)c3n2)c1 [III-137] | *** (greater than 20% Gcase activation) | +++ (Gcase activation greater than 60%) |
| COc1c(F)cccc1-c1cc(C)n2ncc(C(=O)N[C@@H](C)C3CC3)c2n1 [III-138] | ** (Gcase activation in the range of 10% up to 20%) | +++ (Gcase activation greater than 60%) |
| COc1c(F)cccc1-c1cc(C)n2ncc(C(=O)NC(C3CC3)C(F)(F)F)c2n1 (centres unmarked) [III-139] | ** (Gcase activation in the range of 10% up to 20%) | +++ (Gcase activation greater than 60%) |
| COc1c(F)cccc1-c1cc(C)n2ncc(C(=O)NC(C)C(F)(F)F)c2n1 (centres unmarked) [III-140] | ** (Gcase activation in the range of 10% up to 20%) | +++ (Gcase activation greater than 60%) |
| COc1c(C#N)cccc1-c1cc(C)n2ncc(C(=O)NC(C3CC3)C(F)(F)F)c2n1 (centres unmarked) [III-141] | * (less than 10% Gcase activation) | +++ (Gcase activation greater than 60%) |
| COc1c(C#N)cccc1-c1cc(C)n2ncc(C(=O)NC(C)C(F)(F)F)c2n1 (centres unmarked) [III-142] | * (less than 10% Gcase activation) | + (less than 30% Gcase activation) |
| COc1c(C#N)cccc1-c1cc(C)n2ncc(C(=O)N[C@@H](C)C3CC3)c2n1 [III-143] | * (less than 10% Gcase activation) | + (less than 30% Gcase activation) |
| COc1c(C#N)cccc1-c1cc(C)n2ncc(C(=O)N[C@H](C)C3CC3)c2n1 [III-144] | * (less than 10% Gcase activation) | + (less than 30% Gcase activation) |
| COc1cc(-c2cc(C)n3ncc(C(=O)N[C@@H](C)C4CC4)c3n2)ccc1F [III-145] | *** (greater than 20% Gcase activation) | +++ (Gcase activation greater than 60%) |
| COc1cc(F)ccc1-c1cc(C)n2ncc(C(=O)N[C@@H](C)C3CC3)c2n1 [III-146] | *** (greater than 20% Gcase activation) | +++ (Gcase activation greater than 60%) |
| COc1cc(-c2cc(C)n3ncc(C(=O)NC(C4CC4)C(F)(F)F)c3n2)ccc1F (centres unmarked) [III-147] | *** (greater than 20% Gcase activation) | +++ (Gcase activation greater than 60%) |
| COc1cc(-c2cc(C)n3ncc(C(=O)NC(C)C(F)(F)F)c3n2)ccc1F (centres unmarked) [III-148] | ** (Gcase activation in the range of 10% up to 20%) | +++ (Gcase activation greater than 60%) |
| COc1cc(F)ccc1-c1cc(C)n2ncc(C(=O)NC(C3CC3)C(F)(F)F)c2n1 (centres unmarked) [III-149] | *** (greater than 20% Gcase activation) | +++ (Gcase activation greater than 60%) |

| SMILES | Percent Gcase Activation, 0.1 μM Test Compound | Percent Gcase Activation, 1 μM Test Compound |
| --- | --- | --- |
| COc1cc(F)ccc1-c1cc(C)n2ncc(C(=O)NC(C)C(F)(F)F)c2n1 (centres unmarked) [III-150] | *** (greater than 20% Gcase activation) | +++ (Gcase activation greater than 60%) |
| Cc1cc(-c2ccc(F)cc2C#N)nc2c(C(=O)NC(C3CC3)C(F)(F)F)cnn12 (centres unmarked) [III-151] | *** (greater than 20% Gcase activation) | +++ (Gcase activation greater than 60%) |
| Cc1cc(-c2ccc(F)cc2C#N)nc2c(C(=O)N[C@@H](C)C3CC3)cnn12 [III-152] | *** (greater than 20% Gcase activation) | +++ (Gcase activation greater than 60%) |
| Cc1cc(-c2ccc(F)cc2C#N)nc2c(C(=O)N[C@H](C)C3CC3)cnn12 [III-153] | ** (Gcase activation in the range of 10% up to 20%) | +++ (Gcase activation greater than 60%) |
| Cc1cc(-c2ccc(F)cc2C#N)nc2c(C(=O)NC(C)C(F)(F)F)cnn12 (centres unmarked) [III-154] | *** (greater than 20% Gcase activation) | +++ (Gcase activation greater than 60%) |
| Cc1cc(-c2ccc(F)cc2C#N)nc2c(C(=O)N[C@H](C)C(F)(F)F)cnn12 [III-155] | * (less than 10% Gcase activation) | ++ (Gcase activation in the range of 30% up to 60%) |
| Cc1cc(-c2ccc(F)cc2C#N)nc2c(C(=O)N[C@@H](C)C(F)(F)F)cnn12 [III-156] | *** (greater than 20% Gcase activation) | +++ (Gcase activation greater than 60%) |
| Cc1cc(-c2ccc(F)c(C#N)c2)nc2c(C(=O)N[C@@H](C)C3CC3)cnn12 [III-157] | *** (greater than 20% Gcase activation) | +++ (Gcase activation greater than 60%) |
| Cc1cc(-c2ccc(F)c(C#N)c2)nc2c(C(=O)NC(C3CC3)C(F)(F)F)cnn12 (centres unmarked) [III-158] | *** (greater than 20% Gcase activation) | +++ (Gcase activation greater than 60%) |
| Cc1cc(-c2ccc(F)c(C#N)c2)nc2c(C(=O)NC(C)C(F)(F)F)cnn12 (centres unmarked) [III-159] | ** (Gcase activation in the range of 10% up to 20%) | +++ (Gcase activation greater than 60%) |
| Cc1cc(-c2ccc(F)c(C(N)=O)c2)nc2c(C(=O)N[C@@H](C)C3CC3)cnn12 [III-160] | ** (Gcase activation in the range of 10% up to 20%) | +++ (Gcase activation greater than 60%) |
| Cc1cc(-c2cccc(C(N)=O)n2)nc2c(C(=O)NC(C3CC3)C(F)(F)F)cnn12 (centres unmarked) [III-161] | * (less than 10% Gcase activation) | +++ (Gcase activation greater than 60%) |
| Cc1cc(-c2ccc(F)c(C(N)=O)c2)nc2c(C(=O)NC(C3CC3)C(F)(F)F)cnn12 (centres unmarked) [III-162] | *** (greater than 20% Gcase activation) | +++ (Gcase activation greater than 60%) |
| Cc1cc(-c2ccc(F)cc2)nc2c(C(=O)NC(C3CC3)C(F)(F)F)cnn12 (centres unmarked) [III-163] | *** (greater than 20% Gcase activation) | +++ (Gcase activation greater than 60%) |
| Cc1cc(-c2ccc(F)cc2)nc2c(C(=O)NC(C)C(F)(F)F)cnn12 (centres unmarked) [III-164] | *** (greater than 20% Gcase activation) | +++ (Gcase activation greater than 60%) |
| Cc1cc(NC2CC2)nc2c(C(=O)NC(C)C(F)(F)F)cnn12 (centres unmarked) [III-165] | ** (Gcase activation in the range of 10% up to 20%) | +++ (Gcase activation greater than 60%) |
| Cc1cc(NC2CC2)nc2c(C(=O)N[C@@H](C)C3CC3)cnn12 [III-166] | ** (Gcase activation in the range of 10% up to 20%) | +++ (Gcase activation greater than 60%) |
